The first assay deals with TNF-α production in LPS-stimulated human whole blood. The experiment in a line: Inhibition of TNF-α production from human whole blood (hWBA). The format is cell-based. As to conditions: Homo sapiens, IC50 for TNF-α production, LPS-stimulated human whole blood; read-out: hWBA.
Consider `COc1ccc2c(c1)C(=O)N(C[C@@]1(C#Cc3ccc(C(=NO)N4CCCCC4)cc3)NC(=O)NC1=O)C2` [Compound 946], for which the IC50 worked out at 154 nM.

Staying with this assay, now noted: Homo sapiens, IC50 for inhibition of TNF-α production, LPS-stimulated human whole blood; read-out: hWBA.
For the compound `CCN1CCN(C(=O)c2ccc(C#C[C@]3(CN4Cc5ccc(OC)cc5C4=O)NC(=O)NC3=O)cc2)CC1` [Compound 960], the IC50 turned out to be 446 nM. Turning to `COc1ccc2c(c1)C(=O)N(C[C@@]1(C#Cc3ccc(C(=O)N4CCC(N5CCCCC5)CC4)cc3)NC(=O)NC1=O)C2` [Compound 963], the IC50 is 401 nM.

For `COc1ccc2c(c1)C(=O)N(C[C@@]1(C#Cc3ccc(-c4ccccc4O)cc3)NC(=O)NC1=O)C2` [Compound 969], the IC50 was found to be 652 nM. With `COc1ccc2c(c1)C(=O)N(C[C@@]1(C#Cc3ccc(CN4CCN(c5nccs5)CC4)cc3)NC(=O)NC1=O)C2` [Compound 980], the IC50 worked out at 3130 nM. Consider `COc1ccc2c(c1F)C(=O)N(C[C@@]1(C#Cc3ccc(CN4CCN(c5ccncc5)CC4)cc3)NC(=O)NC1=O)C2` [Compound 981], for which the IC50 stood at 290 nM. For `COc1ccc2c(c1F)C(=O)N(C[C@@]1(C#Cc3ccc(CN4CCN(C5CCCCC5)CC4)cc3)NC(=O)NC1=O)C2` [Compound 982], the IC50 was determined as 255 nM. Consider `COc1ccc2c(c1F)C(=O)N(C[C@]1(C#Cc3ccc(CN4CCN(C5CCCCC5)CC4)cc3)NC(=O)NC1=O)C2` [Compound 985], for which the IC50 turned out to be 100000 nM.

For the compound `COc1ccc2c(c1F)C(=O)N(C[C@@]1(C#Cc3ccc(-c4cccc(N5CCN(C6CCCCC6)CC5)n4)c(F)c3)NC(=O)NC1=O)C2` [Compound 994], the IC50 stood at 2430 nM. Same read-out and setting: the value for `COc1ccc2c(c1F)C(=O)N(C[C@@]1(C#Cc3ccc(-c4cccc(N5CCOCC5)n4)c(F)c3)NC(=O)NC1=O)C2` [Compound 996] was 2560 nM; that for `COc1ccc2c(c1)C(=O)N(C[C@@]1(C#Cc3cccc(N4CCSCC4)n3)NC(=O)NC1=O)C2` [Compound 997] was 4320 nM.

The same assay, now with this note: IC50 for TNF-α production, LPS-stimulated human whole blood; read-out: hWBA.
On to `COc1ccc2c(c1)C(=O)N(C[C@@]1(C#Cc3ccc(C(=NO)N4CCC(=O)CC4)cc3)NC(=O)NC1=O)C2` [Compound 945], for which the IC50 was 86 nM.

Turning to `COc1ccc2c(c1)C(=O)N(C[C@@]1(C#Cc3ccc(C(=NO)N4CCN(C)CC4)s3)NC(=O)NC1=O)C2` [Compound 951], the IC50 came out at 220 nM. As for `COc1ccc2c(c1)C(=O)N(C[C@@]1(C#Cc3ccc(C(=NO)N4CCOCC4)s3)NC(=O)NC1=O)C2` [Compound 952], the IC50 turned out to be 571 nM. For the compound `COc1ccc2c(c1)C(=O)N(C[C@@]1(C#Cc3ccc(C(=NO)N4CCN(C)CC4)nc3)NC(=O)NC1=O)C2` [Compound 953], the IC50 worked out at 87 nM. Consider `CCN1CCN(C(=NO)c2ccc(C#C[C@]3(CN4Cc5ccc(OC)cc5C4=O)NC(=O)NC3=O)cn2)CC1` [Compound 954], for which the IC50 came to 87 nM.

Regarding `COc1ccc2c(c1)C(=O)N(C[C@@]1(C#Cc3ccc(-c4ccccc4O)cc3)NC(=O)NC1=O)C2` [Compound 955], the IC50 was found to be 652 nM.

Staying with this assay, now noted: IC50 for inhibition of TNF-α production, LPS-stimulated human whole blood; read-out: hWBA.
As for `COc1ccc2c(c1)C(=O)N(C[C@@]1(C#Cc3ccc(C(=O)N4CCN(C5CC5)CC4)cc3)NC(=O)NC1=O)C2` [Compound 961], the IC50 is 1160 nM.

Turning to `COc1ccc2c(c1)C(=O)N(C[C@@]1(C#Cc3ccc(C(=O)N4CCN(C5CCCCC5)CC4)cc3)NC(=O)NC1=O)C2` [Compound 962], the IC50 worked out at 578 nM.

As for `CCN1CCN(C(=O)c2ccc(C#C[C@]3(CN4Cc5ccc(OC)c(F)c5C4=O)NC(=O)NC3=O)cc2)CC1` [Compound 964], the IC50 is 308 nM. Take `COc1ccc2c(c1F)C(=O)N(C[C@@]1(C#Cc3ccc(CN4CCOCC4)nc3)NC(=O)NC1=O)C2` [Compound 965]: the IC50 came out at 698 nM. `COc1ccc2c(c1F)C(=O)N(C[C@@]1(C#Cc3ccc(CN4CCSCC4)nc3)NC(=O)NC1=O)C2` [Compound 966]: the IC50 is 588 nM. Turning to `COc1ccc2c(c1F)C(=O)N(C[C@@]1(C#Cc3ccc(CN4CCCCC4)nc3)NC(=O)NC1=O)C2` [Compound 967], the IC50 is 785 nM. Consider `COc1ccc2c(c1F)C(=O)N(C[C@@]1(C#Cc3ccc(CN4CCc5ccc(F)cc5C4)nc3)NC(=O)NC1=O)C2` [Compound 968], for which the IC50 was 4980 nM. Same read-out and setting: in the case of `COc1ccc2c(c1)C(=O)N(C[C@@]1(C#Cc3ccc(-c4nc(-c5ccncc5)ccc4O)cc3)NC(=O)NC1=O)C2` [Compound 970] it was 65 nM; in that of `COc1ccc2c(c1)C(=O)N(C[C@@]1(C#Cc3ccc(-c4nc(-c5cccnc5)ccc4O)cc3)NC(=O)NC1=O)C2` [Compound 971], 80.2 nM. On the same count and under the same terms, the value for `CCN1CCN(c2ccc(OC)c(-c3ccc(C#C[C@]4(CN5Cc6ccc(OC)cc6C5=O)NC(=O)NC4=O)cc3)n2)CC1` [Compound 972] was 573 nM; that for `COc1ccc2c(c1)C(=O)N(C[C@@]1(C#Cc3ccc(-c4nc(-c5cnn(C)c5)ccc4O)cc3)NC(=O)NC1=O)C2` [Compound 973] was 61 nM; that for `COc1ccc2c(c1)C(=O)N(C[C@@]1(C#Cc3ccc(-c4nc(-c5cccnc5)ccc4OC(C)=O)cc3)NC(=O)NC1=O)C2` [Compound 975] was 61.6 nM. With `CCN1CCN(c2ccc(O)c(-c3ccc(C#C[C@]4(CN5Cc6ccc(OC)cc6C5=O)NC(=O)NC4=O)cc3F)n2)CC1` [Compound 976], the IC50 amounted to 39.8 nM. As to `CCN1CCN(Cc2ccc(C#C[C@]3(CN4Cc5ccc(OC)cc5C4=O)NC(=O)NC3=O)cn2)CC1` [Compound 977], the IC50 worked out at 782 nM. Still for that read-out and setting: the value for `CCN1CCN(Cc2ccc(C#C[C@]3(CN4Cc5ccc(OC)c(F)c5C4=O)NC(=O)NC3=O)cn2)CC1` [Compound 978] was 156 nM; that for `COc1ccc2c(c1F)C(=O)N(C[C@@]1(C#Cc3ccc(CN4CCN(c5ccncc5)CC4)nc3)NC(=O)NC1=O)C2` [Compound 979] was 228 nM; that for `CCN1CCN(Cc2ccc(C#C[C@]3(CN4Cc5ccc(OC)c(F)c5C4=O)NC(=O)NC3=O)cc2F)CC1` [Compound 983] was 250 nM. On to `CCN1CCN(C(C)c2ccc(C#C[C@]3(CN4Cc5ccc(OC)c(F)c5C4=O)NC(=O)NC3=O)cc2)CC1` (stereo partly shown) [Compound 984], for which the IC50 turned out to be 695 nM.

Take `COc1ccc2c(c1F)C(=O)N(C[C@@]1(C#Cc3ccc(-c4nc(-c5cnn(C)c5)ccc4O)cc3)NC(=O)NC1=O)C2` [Compound 986]: the IC50 is 87 nM. For the compound `COc1ccc2c(c1F)C(=O)N(C[C@@]1(C#Cc3ccc(-c4nc(-c5cnn(C)c5)ccc4O)c(F)c3)NC(=O)NC1=O)C2` [Compound 987], the IC50 worked out at 75.4 nM. As for `COc1ccc2c(c1)C(=O)N(C[C@@]1(C#Cc3ccc(-c4nc(-c5cnn(C)c5)ccc4OC(=O)C(C)(C)C)cc3)NC(=O)NC1=O)C2` [Compound 990], the IC50 amounted to 42.8 nM.

On to `CCN1CCN(c2cccc(-c3ccc(C#C[C@]4(CN5Cc6ccc(OC)c(F)c6C5=O)NC(=O)NC4=O)cc3)n2)CC1` [Compound 991], for which the IC50 was found to be 606 nM. Consider `CCN1CCN(c2cccc(-c3ccc(C#C[C@]4(CN5Cc6ccc(OC)c(F)c6C5=O)NC(=O)NC4=O)cc3F)n2)CC1` [Compound 992], for which the IC50 amounted to 808 nM. Regarding `COc1ccc2c(c1F)C(=O)N(C[C@@]1(C#Cc3ccc(-c4cccc(N5CCN(C6CCCCC6)CC5)n4)cc3)NC(=O)NC1=O)C2` [Compound 993], the IC50 was determined as 856 nM.

For `COc1ccc2c(c1F)C(=O)N(C[C@@]1(C#Cc3ccc(-c4cccc(N5CCOCC5)n4)cc3)NC(=O)NC1=O)C2` [Compound 995], the IC50 worked out at 1640 nM.

Turning to `COc1ccc2c(c1F)C(=O)N(C[C@@]1(C#Cc3ccc(-c4cccc(N5CCSCC5)n4)cc3)NC(=O)NC1=O)C2` [Compound 999], the IC50 is 4150 nM.

These data come from patent publication US8541572B2.
